Target: T1, partially purified C. tropicalis TISTR 5350 pyruvate decarboxylase (PDC) (Candida tropicalis, UniProt C5MDS4)
T1 construct: gene CTRG_03826
Assay: global fit of six-ODE model to batch PAC biotransformation progress curves (HPLC, enzymatic pyruvate assay)
Type: biochemical
Conditions: carboligation with benzaldehyde (30/36 and 100/120 mM benzaldehyde/pyruvate); 250 mM phosphate pH 7.0, 4 °C, 1 mM TPP, 1 mM MgSO4; partially purified enzyme; model-fitted affinity constant; sigmoidal
Source text: global fit of six-ODE model to batch PAC biotransformation progress curves (HPLC, enzymatic pyruvate assay) on partially purified C. tropicalis TISTR 5350 pyruvate decarboxylase (PDC)

T1 sequence (C5MDS4 entry or part of it): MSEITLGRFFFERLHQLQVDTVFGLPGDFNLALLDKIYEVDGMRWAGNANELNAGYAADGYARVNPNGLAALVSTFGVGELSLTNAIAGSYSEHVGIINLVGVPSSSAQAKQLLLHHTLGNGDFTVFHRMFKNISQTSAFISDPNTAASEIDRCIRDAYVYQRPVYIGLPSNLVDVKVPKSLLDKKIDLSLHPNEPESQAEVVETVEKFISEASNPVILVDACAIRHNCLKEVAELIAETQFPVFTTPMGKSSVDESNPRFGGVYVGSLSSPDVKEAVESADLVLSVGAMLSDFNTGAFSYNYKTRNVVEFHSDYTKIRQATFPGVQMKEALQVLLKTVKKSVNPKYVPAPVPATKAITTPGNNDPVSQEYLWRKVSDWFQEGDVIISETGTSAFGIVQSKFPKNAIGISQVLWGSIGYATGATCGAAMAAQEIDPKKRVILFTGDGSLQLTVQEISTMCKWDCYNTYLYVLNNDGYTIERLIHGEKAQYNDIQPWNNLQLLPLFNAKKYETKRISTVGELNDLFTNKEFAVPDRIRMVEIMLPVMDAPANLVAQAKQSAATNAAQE

O=Cc1ccccc1 [B, benzaldehyde]
Optimized values: (1.01 ± 0.02) × 10^–4 mM^1−h
